Measurements taken from the CheMixHub viscosity set.

Assay: xn = mol fraction of the nth substance listed

CCCCOC(C)=O + CN1CCCC1=O
viscosity [mPa·s], 101 kPa
Conditions | x2 = 0.1327 | x2 = 0.256 | x2 = 0.3711 | x2 = 0.4785 | x2 = 0.5792 | x2 = 0.6737 | x2 = 0.7626 | x2 = 0.8463 | x2 = 0.9253
303.15 K | 0.801 | 0.941 | 1.061 | 1.165 | 1.258 | 1.339 | 1.405 | 1.463 | 1.512
308.15 K | 0.737 | 0.861 | 0.968 | 1.059 | 1.143 | 1.213 | 1.273 | 1.325 | 1.37
313.15 K | 0.69 | 0.805 | 0.905 | 0.991 | 1.065 | 1.13 | 1.187 | 1.236 | 1.28
318.15 K | 0.642 | 0.745 | 0.834 | 0.911 | 0.978 | 1.037 | 1.088 | 1.131 | 1.173

Cn1c(=O)c2c(ncn2C)n(C)c1=O + OCCO
viscosity [mPa·s], 100 kPa
Conditions | 293.15 K | 298.15 K | 303.15 K | 308.15 K | 313.15 K | 318.15 K | 323.15 K
x1 = 0.00056 | 20.79 | 16.86 | 13.79 | 11.41 | 9.55 | 8.092 | 6.902
x1 = 0.00112 | 20.75 | 16.8 | 13.77 | 11.36 | 9.528 | 8.07 | 6.89
x1 = 0.00166 | 20.69 | 16.76 | 13.72 | 11.34 | 9.492 | 8.048 | 6.866
x1 = 0.00222 | 20.64 | 16.71 | 13.67 | 11.3 | 9.464 | 8.019 | 6.833
x1 = 0.00285 | 20.57 | 16.66 | 13.63 | 11.27 | 9.426 | 7.982 | 6.805
x1 = 0.00335 | 20.53 | 16.63 | 13.59 | 11.23 | 9.403 | 7.965 | 6.785
